The assay concerns the target human recombinant H-PGDS (Homo sapiens, UniProt O60760). Put plainly: Fluorescence Intensity h-PGDS TBA Enzyme Assay. The class given is biochemical. Particulars: 1:175,000 human recombinant H-PGDS, highest inhibitor concentration typically 1 μM. Put shortly:
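Recombinant human H-PGDS preincubated 10 min at room temperature with inhibitor in 100 mM Tris pH 8.0, 100 μM MgCl2, 2.5 mM glutathione, 0.5% DMSO; 5.0 μM PGH2 added, stopped after 42 s with FeCl2/citric acid. Remaining PGH2 measured as MDA–TBA fluorescence (ex 530/em 565 nm); IC50 by 4-parameter fit, 11 concentrations.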

Broadly, the IC50 is the concentration needed to halve the response being measured.

human recombinant H-PGDS, sequence (O60760 whole entry): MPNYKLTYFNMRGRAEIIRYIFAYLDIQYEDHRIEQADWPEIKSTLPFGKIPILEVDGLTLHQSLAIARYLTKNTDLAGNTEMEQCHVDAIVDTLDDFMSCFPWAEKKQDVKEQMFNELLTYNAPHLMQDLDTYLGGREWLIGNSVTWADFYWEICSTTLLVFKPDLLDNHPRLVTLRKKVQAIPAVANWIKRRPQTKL

For the compound `Cc1cc(O)nc(CNC(=O)c2ccc(-c3cccc(F)c3)nc2)n1` [Example 115, 6-(3-Fluorophenyl)-N-[(4-hydroxy-6-methylpyrimidin-2-yl)methyl]nicotinamide], the IC50 is 95 nM.
With `CCOC(=O)CC(NC(=O)c1ccc(-c2cccc(C)c2)nc1)c1ccc(Cl)cc1` (centres unmarked) [Example 221, Ethyl 3-(4-chlorophenyl)-3-({[6-(3-methylphenyl)pyridin-3-yl]carbonyl}amino)propanoate] the figure was 55.9 nM; with `O=C(NCC1(O)CCSCC1)c1ccc(-c2cccc(F)c2)nc1` [Example 139, 6-(3-Fluorophenyl)-N-[(4-hydroxytetrahydro-2H-thiopyran-4-yl)methyl]nicotinamide], 39 nM; with `O=C(NCCN1CCCC1=O)c1ccc(-c2ccccc2)nc1` [Example 351, N-[2-(2-Oxopyrrolidin-1-yl)ethyl]-6-phenylnicotinamide], 25.4 nM.
In the case of `O=C(NCCNc1nccn2ccnc12)c1ccc(-c2cccc(F)c2)nc1` [Example 104, 6-(3-Fluorophenyl)-N-[2-(imidazo[1,2-a]pyrazin-8-ylamino)ethyl]nicotinamide] it was 3.43 nM; in that of `CC(=O)N1CCC(CNC(=O)c2ccc(-c3cccc(F)c3)nc2)CC1` [Example 178, N-[(1-Acetylpiperidin-4-yl)methyl]-6-(3-fluorophenyl)nicotinamide], 6.88 nM; in that of `O=C(NC(CCc1ccccc1)c1nn[nH]n1)c1ccc(-c2cccc(F)c2)nc1` (centres unmarked) [Example 62, 6-(3-Fluorophenyl)-N-[3-phenyl-1-(2H-tetrazol-5-yl)propyl]nicotinamide], 17.2 nM.
With `CC(C)(C)[C@@H](CO)NC(=O)c1ccc(-c2cccc(F)c2)nc1` [Example 539, 6-(3-Fluorophenyl)-N-[(1S)-1-(hydroxymethyl)-2,2-dimethylpropyl]nicotinamide] the figure was 64.4 nM; with `Cc1cc(C)nc(CCNC(=O)c2ccc(-c3cccc(F)c3)nc2)n1` [Example 143, N-[2-(4,6-Dimethylpyrimidin-2-yl)ethyl]-6-(3-fluorophenyl)nicotinamide], 11 nM; with `O=C(NCCN1CCOCC1)c1cnc(-c2cccc(F)c2)c(Cl)c1` [Example 552, 5-Chloro-6-(3-fluorophenyl)-N-(2-morpholin-4-ylethyl)nicotinamide], 60.8 nM.
Regarding `O=C(NCC(O)c1ccccc1F)c1ccc(-c2cccc(F)c2)nc1` (centres unmarked) [Example 79, 6-(3-Fluorophenyl)-N-[2-(2-fluorophenyl)-2-hydroxyethyl]nicotinamide], the half-maximal inhibitory concentration (IC50) is 10.3 nM.
Regarding `COc1cccc(-c2ccc(C(=O)NCC3CCN(C(C)=O)CC3)cn2)c1` [Example 273, N-[(1-Acetylpiperidin-4-yl)methyl]-6-(3-methoxyphenyl)nicotinamide], the IC50 worked out at 559 nM.
For `O=C(NCCC1CCC(=O)N1CCN1CCNC1=O)c1ccc(-c2ccccc2)nc1` (centres unmarked) [Example 360, N-(2-{5-Oxo-1-[2-(2-oxoimidazolidin-1-yl)ethyl]pyrrolidin-2-yl}ethyl)-6-phenylnicotinamide], the IC50 was found to be 10.3 nM.
As to `COc1ccc(C(CNC(=O)c2ccc(-c3cccc(F)c3)nc2)N(C)C)cc1` (centres unmarked) [Example 204, N-[2-(Dimethylamino)-2-(4-methoxyphenyl)ethyl]-6-(3-fluorophenyl)nicotinamide], the IC50 was found to be 125 nM.
Take `COc1cccc(-c2ccc(C(=O)NCc3ccc(OC)c(OC)c3)cn2)c1` [Example 275, N-(3,4-Dimethoxybenzyl)-6-(3-methoxyphenyl)nicotinamide]: the IC50 came out at 179 nM.
As for `Cc1cccc(-c2ccc(C(=O)NCc3ccc(F)cc3)cn2)c1` [Example 314, N-(4-Fluorobenzyl)-6-(3-methylphenyl)nicotinamide], the IC50 is 79.5 nM.
In the case of `COC(=O)CC(NC(=O)c1ccc(-c2cccc(OC)c2)nc1)c1cccnc1` (centres unmarked) [Example 337, Methyl 3-({[6-(3-methoxyphenyl)pyridin-3-yl]carbonyl}amino)-3-pyridin-3-ylpropanoate] it was 396 nM; in that of `O=C(NCc1ccc(Cl)cc1)c1ccc(-c2cccc(F)c2)nc1` [Example 410, N-(4-Chlorobenzyl)-6-(3-fluorophenyl)nicotinamide], 39.8 nM.
Regarding `O=C(NC1CCCOC1)c1ccc(-c2cccc(F)c2)nc1` (centres unmarked) [Example 63, 6-(3-Fluorophenyl)-N-(tetrahydro-2H-pyran-3-yl)nicotinamide], the IC50 was determined as 5.32 nM.
In the case of `O=C(Nc1ccncc1)c1ccc(-c2cccc(F)c2)nc1` [Example 177, 6-(3-Fluorophenyl)-N-pyridin-4-ylnicotinamide] it was 8.19 nM; in that of `O=C(NCC1CCCCO1)c1ccc(-c2ccc(F)cc2)nc1` (centres unmarked) [Example 498, 6-(4-Fluorophenyl)-N-(tetrahydro-2H-pyran-2-ylmethyl)nicotinamide], at least 1000 nM; in that of `O=C(NCC1C(=O)Nc2ccccc21)c1ccc(-c2cc(F)cc(F)c2)nc1` (centres unmarked) [Example 568, 6-(3,5-Difluorophenyl)-N-[(2-oxo-2,3-dihydro-1H-indol-3-yl)methyl]nicotinamide], 2.63 nM.
For the compound `COc1cc(F)cc(-c2ccc(C(=O)NCCCN3CCCC3=O)cn2)c1` [Example 543, 6-(3-Fluoro-5-methoxyphenyl)-N-[3-(2-oxopyrrolidin-1-yl)propyl]nicotinamide], the IC50 is 104 nM.
In the case of `CN1CCC(CCNC(=O)c2ccc(-c3ccccc3)nc2)CC1` [Example 388, N-[2-(1-Methylpiperidin-4-yl)ethyl]-6-phenylnicotinamide] it was 15.7 nM.
In the case of `O=C(NCc1ccc(Cl)cc1)c1ccc(-c2ccc(F)cc2)nc1` [Example 462, N-(4-Chlorobenzyl)-6-(4-fluorophenyl)nicotinamide] it was at least 1000 nM; in that of `CCOC(=O)CC(NC(=O)c1ccc(-c2ccccc2)nc1)c1ccccc1` (centres unmarked) [Example 394, Ethyl 3-phenyl-3-{[(6-phenylpyridin-3-yl)carbonyl]amino}propanoate], 24.4 nM; in that of `CCOC(=O)CC(NC(=O)c1ccc(-c2cccc(F)c2)nc1)c1ccc(Cl)cc1` (centres unmarked) [Example 407, Ethyl 3-(4-chlorophenyl)-3-({[6-(3-fluorophenyl)pyridin-3-yl]carbonyl}amino)propanoate], 149 nM.
With `COc1ccc(CNC(=O)c2ccc(-c3ccc(F)cc3)nc2)cc1` [Example 478, 6-(4-Fluorophenyl)-N-(4-methoxybenzyl)nicotinamide] the figure was 377 nM; with `O=C(N[C@@H](CO)c1ccccc1)c1ccc(-c2cccc(F)c2)nc1` [Example 78, 6-(3-Fluorophenyl)-N-[(1R)-2-hydroxy-1-phenylethyl] nicotinamide], 45 nM.
Consider `O=C(NCCC1CCCCO1)c1ccc(-c2cccc(F)c2)nc1` (centres unmarked) [Example 172, 6-(3-Ffluorophenyl)-N-[2-(tetrahydro-2H-pyran-2-yl)ethyl]nicotinamide], for which the IC50 is 5.74 nM.
With `O=C(NC[C@H]1CC[C@H](c2nnc(C3CC3)[nH]2)CC1)c1ccc(-c2cccc(F)c2)nc1` [Example 9, N-{[trans-4-(5-Cyclopropyl-4H-1,2,4-triazol-3-yl)cyclohexyl]methyl}-6-(3-fluorophenyl)nicotinamide] the figure was 83.6 nM.
As for `O=C(Nc1ccncc1)c1ccc(-c2ccc(F)cc2)nc1` [Example 459, 6-(4-Fluorophenyl)-N-pyridin-4-ylnicotinamide], the IC50 was determined as 222 nM.
